Data as given in patent US7338940B2, “Cancer treatment including glycolytic inhibitors” (priority 2000, dated 2008).
Values after ≈ are worked out from the molar mass of the structure shown.

Experiments:
[1] = system: tumor cells (143B or MCF-7); assay: Hypersensitization of tumor cells to glycolytic inhibitors (cell model (A)); type: cell-based; settings: intact tumor cells
143b cells = assay: Lactate production in living cells (screen for inhibitors of oxidative phosphorylation); type: cell-based; settings: for Change in lactate production (in words): increasing doses
Description: Lactate (more commonly known as lactic acid) is an end product of glycolysis that is activated when a cell cannot use oxygen as its final electron acceptor. This occurs when cells are metabolizing anaerobically. Thus, under these conditions, pyruvate, which is the last end product of glycolysis during aerobic metabolism, is further metabolized to lactate. […] This discovery created a need for a screening method to identify agents which inhibit oxidative phosphorylation and thereby render a cell hypersensitive to glycolytic inhibitors. Consequently, we have developed a rapid and an inexpensive way to detect such agents by measuring increases in the production of lactate in living cells.
Such methodology provides a practical means for testing and or screening extensive libraries of structurally diverse compounds to identify inhibitors of oxidative phosphorylation as well as for obtaining new leads to design novel inhibitors of this fundamental cellular process.

[2] = system: osteosarcoma cell line (143B; Wild type); assay: Growth inhibition studies in wild type 143B osteosarcoma cells; type: cell-based; settings: for IC50: Homo sapiens, read-out: 50% Growth Inhibition Dose; for IC50 / 50% Growth Inhibition Dose: Wild type (143B) cells
[3] = system: ρ^o cells (cell line 206); assay: Growth inhibition studies in ρ° cells devoid of mitochondrial DNA; type: cell-based; settings: for Relative toxicity/sensitivity in ρ^o vs wt cells (in words): cell model (B); for IC50 / 50% Growth Inhibition Dose: ρ° cells; for IC50: read-out: 50% Growth Inhibition Dose; for Ratio of 50% growth inhibition dose, ρ° to wild type (times more resistant): ρ° vs wild type 143B cells
Description: When an osteosarcoma cell line (143B; Wild type in Table 1 below) was exposed for prolonged periods to ethidium bromide a mutant completely devoid of mitochondrial DNA ρ^o was isolated. […] These processes are necessary for transmembrane proton pumping which creates an electronegative membrane potential (Δψmt) in the matrix side of the inner mitochondrial membrane. Since Rho 123 is a fluorescent dye, which due to its chemical positive charge accumulates in mitochondria, it is commonly used as an indicator of Δψmt.

[4] = system: human breast carcinoma cells, MCF-7; assay: Colony forming units after co-treatment with Rho 123 and 2-dg; type: cell-based
Description: 218:1117-1119, 1982; Lampidis, T J, Bernal, S D, Summerhayes, I C, and Chen, L B. “Selective toxicity of Rhodamine 123 in carcinoma cells in vitro.” Cancer Res. 43:716-720, 1983; and Bernal, S B, Lampidis, T J, Mclsaac, B, and Chen, L B. “Anticarcinoma activity in vivo of Rhodamine 123, a mitochondrial-specific dye.” Science.

implanted tumors = assay: In vivo treatment of animals with implanted tumors; settings: for Tumor response: animals with implanted tumors
Description: This latter result provides evidence that manipulation of Oxphos and glycolysis simultaneously can cure tumors in animals. […] In this regard, several reports have shown that low levels of 2-dg can be safely administered to animals for various reasons including hypersensitization of tumors to irradiation.

[5] = system: wild type 143B (wt) and ρ^o cells (cell line 206); assay: Flow cytometric analysis of Rho 123 accumulation/retention; type: cell-based; settings: non-P-gp cell lines (143B wt and ρ^o)
Method: Flow cytometric analysis was performed in order to quantitate the differences observed microscopically between wild type 143B (wt) and ρ^o cells (designated as cell line 206) in their accumulation of Rho 123.
To ensure that our accumulation results were not complicated by P-gp-mediated MDR, since Rho 123 is a known substrate for this transporter, both cell types were examined for this gene by RT-PCR and were found not to express it.

| IC50 [2] | Compound | Hypersensitization of tumor cells to glycolytic inhibitors [1] | Change in lactate production (in words) (143b cells) | Relative toxicity/sensitivity in ρ^o vs wt cells (in words) [3] | IC50 [3] | Ratio of 50% growth inhibition dose, ρ° to wild type (times more resistant) [3] | further results |
| --- | --- | --- | --- | --- | --- | --- | --- |
| 0.05 µg/mL (≈ 0.0586 µM) | CC(=O)O[C@H]1C(=O)[C@@]2(C)[C@H]([C@H](OC(=O)c3ccccc3)[C@]3(O)C[C@H](OC(=O)[C@H](O)[C@@H](NC(=O)c4ccccc4)c4ccccc4)C(C)=C1C3(C)C)[C@]1(OC(C)=O)CO[C@@H]1C[C@@H]2O [Paclitaxel] | do not hypersensitize | little or no significant changes | equitoxic | 0.05 µg/mL (≈ 0.0586 µM) | 1 | LACTATE (143b cells; dose 0.0005 μg/ml): 5.6 +/− 0.7 μg/μg protein; LACTATE (143b cells; dose 0.001 μg/ml): 6.1 +/− 0.7 μg/μg protein; LACTATE (143b cells; dose 0.002 μg/ml): 6.6 +/− 0.3 μg/μg protein |
|  | Cc1cc2nc3cc(C)c(N)cc3[n+](-c3ccccc3)c2cc1N.[Cl-] [Saffranin O] |  |  |  |  | 6 | 50% Growth Inhibition Dose [2]: 0.35 µg/mL; 50% Growth Inhibition Dose [3]: 2 µg/mL |
|  | Rhodamine 123 | hypersensitize | lactate is accordingly increased |  |  | 50 | Colony forming units inhibited ([4]; MCF-7, Rho 123 at its 50% dose, 2-dg at a non-toxic dose): 50%; Tumor response (implanted tumors): only partial or no responses; LACTATE (143b cells; dose 0.25 μg/ml): 9.3 +/− 0.4 μg/μg protein; LACTATE (143b cells; dose 0.50 μg/ml): 13.2 +/− 0.2 μg/μg protein; LACTATE (143b cells; dose 1.0 μg/ml): 14.6 +/− 2.3 μg/μg protein; 50% Growth Inhibition Dose [2]: 1.0 µg/mL; 50% Growth Inhibition Dose [3]: 50 µg/mL |
|  | COc1ccc(CCN(C)CCCC(C#N)(c2ccc(OC)c(OC)c2)C(C)C)cc1OC (stereo not drawn) [verapamil] |  |  |  |  |  | Effect on retention of Rho 123 [5]: increases the retention of Rho 123 |
| 0.01 µg/mL (≈ 0.0184 µM) | COc1cccc2c1C(=O)c1c(O)c3c(c(O)c1C2=O)C[C@@](O)(C(=O)CO)C[C@@H]3O[C@H]1C[C@H](N)[C@H](O)[C@H](C)O1 [Doxorubicin] | do not hypersensitize | little or no significant changes | equitoxic | 0.01 µg/mL (≈ 0.0184 µM) | 1 | LACTATE (143b cells; dose 0.005 μg/ml): 5.1 +/− 0.4 μg/μg protein; LACTATE (143b cells; dose 0.01 μg/ml): 5.5 +/− 0.7 μg/μg protein |
| 0.00075 µg/mL (≈ 0.000925 µM) | CC[C@]1(O)C[C@@H]2CN(CCc3c([nH]c4ccccc34)[C@@](C(=O)OC)(c3cc4c(cc3OC)N(C)[C@H]3[C@@](O)(C(=O)OC)[C@H](OC(C)=O)[C@]5(CC)C=CCN6CC[C@]43[C@@H]65)C2)C1 [Vinblastine] | do not hypersensitize | little or no significant changes | equitoxic | 0.00075 µg/mL (≈ 0.000925 µM) | 1 | LACTATE (143b cells; dose 0.0005 μg/ml): 5.6 +/− 0.6 μg/μg protein; LACTATE (143b cells; dose 0.001 μg/ml): 6.3 +/− 0.9 μg/μg protein; LACTATE (143b cells; dose 0.002 μg/ml): 5.8 +/− 0.3 μg/μg protein |

| Compound | IC50 [2] | Hypersensitization of tumor cells to glycolytic inhibitors [1] | Change in lactate production (in words) (143b cells) | Relative toxicity/sensitivity in ρ^o vs wt cells (in words) [3] | IC50 [3] | Ratio of 50% growth inhibition dose, ρ° to wild type (times more resistant) [3] | further results |
| --- | --- | --- | --- | --- | --- | --- | --- |
| O=CC[C@@H](O)[C@H](O)[C@H](O)CO [2-deoxy-glucose, 2-deoxy-D-glucose] | 1000 µg/mL (≈ 6090 µM) |  |  |  | 50 µg/mL (≈ 305 µM) | 0.05 | Toxicity at the dose used for co-treatment ([4]; MCF-7, drug alone): no toxicity; Tumor response (implanted tumors): only partial or no responses; Safety of administration to animals (implanted tumors; doses effective for anti-tumor activity in combination with an Oxphos inhibitor): can be administered safely; ID50 ([2]; wt cells): 1000 µg/mL (≈ 6090 µM); ID50 ([3]; ρ^o cells): 50 µg/mL (≈ 305 µM) |
